Results from patent US20040018984A1, “Methods for preventing adhesion formation using protease inhibitors” (priority 2002, published 2004).

Legend:
bovine thrombin = bovine thrombin (Bos taurus, UniProt P00735); settings: cited from earlier work
Syrian hamsters = assay: Scoring of adhesion formation after uterine denudation surgery in hamsters; format: in vivo, hamster; settings: for preventative effect, reducing adhesion formation: subsequent experiments in the hamster model with enantiomerically enriched preparations
Description: (§1) Mature female Syrian hamsters (SLC, Shizuoka, Japan), 6 weeks of age, weighing 85 to 90 g were maintained in an environmentally controlled room with a 12-hour light, 12-hour dark cycle. Hamsters were anesthetized with intraperitoneal sodium pentobarbital (50 mg/kg). Surgical technique was performed using a modified procedure of Nagler et al. (Am. J. Obstet. Gynecol. 180:558-63, 1999). An abdominal midline incision was made, and the right uterus was grasped and denuded of serosa over half the length of the uterine body until punctate hemorrhage occurred, using a swab. In the […], 1 ml of 10 μM Suc-Val-Pro-Phe^P(OPh)2 in saline was injected into the abdomen. Then, the abdomen was closed in two layers with silk sutures. In the placebo group, the same 1 ml amount of saline was administered as in the chymase inhibitor group.
(§2) Three days after the surgery, the animals (placebo group, n=13; chymase group, n=13) were anesthetized with sodium pentobarbital (50 mgikg, i.p.), and then the uterus was removed for the measurement of chymase activity. Two weeks after the surgery, the animals (placebo group, n=15; chymase group, n=16) were anesthetized with sodium pentobarbital (50 mg/kg, i.p.), and then adhesions were assessed.
The adhesions were graded blindly according to a modified classification of Hulka et al. (Fertil Steril. 30:661-665, 1978): Score 0, no adhesions; Score 1, mild adhesions; Score 2, localized moderate adhesions; Score 3, moderate and wide adhesions; Score 4, severe adhesions, and impossible to separate. Chymase activities were evaluated in a parametric test using Fisher's Protected Least Significant Difference. Adhesion scores were evaluated in a nonparametric test, and statistically analyzed by the Mann-Whitney's U test. Values are given as means ±standard error (S.E.). Differences were considered statistically significant at P<0.05.

[1] = cited from earlier work
chymase [2] = assay: Uterus chymase activity after uterine denudation surgery in hamsters; format: in vivo, hamster; settings: three days after the operation; 1 ml of 10 μM in saline injected into the abdomen; mean ± S.E.; P=0.06 vs placebo (0.88±0.09)
Description: as §1, with “In the placebo group, the same 1 ml amount of saline was administered as in the chymase inhibitor group.” left out
as §2, with “assessed. […]” for “assessed.”
Chymase activity was measured as described previously (Jin et al., J. Hypertens. 16:657-664, 1998). […] Protein concentration was measured with the bicinchoninic acid protein assay reagent (Pierce Chemical, Rockford, Ill.) using bovine serum albumin as a standard. […]

[3] = test system: chymotrypsin and chymotrypsin-like enzymes; settings: cited from earlier work
chymase [4] = target: T1, chymase (Homo sapiens, UniProt P23946); assay: Chymase activity in vascular tissues after administration during the operation; format: in vivo; settings: for 4 weeks, 10 μM administration only during the operation
T1 construct: from tissue
T1 sequence (P23946 22-247): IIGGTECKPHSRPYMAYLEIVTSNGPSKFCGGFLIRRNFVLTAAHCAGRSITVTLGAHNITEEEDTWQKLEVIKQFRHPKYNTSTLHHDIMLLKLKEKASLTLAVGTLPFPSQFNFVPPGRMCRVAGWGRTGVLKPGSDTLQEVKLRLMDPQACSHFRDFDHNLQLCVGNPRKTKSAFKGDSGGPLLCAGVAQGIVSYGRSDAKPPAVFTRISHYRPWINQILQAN
Excerpt: Pursuant to the method of the present invention, at least one protease inhibitor is maintained in an effective concentration at the site of potential adhesion formation for a period of time sufficient to permit substantial re-epithelialization. The protease inhibitor compound is typically administered over the perioperative interval, which for purposes of the present invention may include a period of time prior to surgery, through surgery itself, and also post-completion of surgery. The term of administration of administration may vary, but typically should be effected from the time of surgery for at least 24 to 48 hours after completion of surgical procedures. In general, the protease inhibitory compound may be administered, with or without sustained release vehicles or formulations, from the time of surgery for a period ranging between about 24 hours and about 14 days (a period that generally will include complete healing). Preferably the compound may be administered as above from the time of surgery for a period ranging between about 24 hours and 7 days, and more preferably ranging between about 24 hours and 3 days. […] Effective dosages, regimens, and routes of administration for other protease inhibitors may be readily determined by one of skill in the art using the teachings provided herein.

human leukocyte elastase = human leukocyte elastase (Homo sapiens, UniProt P08246); settings: cited from earlier work
Chain of human leukocyte elastase (P08246 30-267): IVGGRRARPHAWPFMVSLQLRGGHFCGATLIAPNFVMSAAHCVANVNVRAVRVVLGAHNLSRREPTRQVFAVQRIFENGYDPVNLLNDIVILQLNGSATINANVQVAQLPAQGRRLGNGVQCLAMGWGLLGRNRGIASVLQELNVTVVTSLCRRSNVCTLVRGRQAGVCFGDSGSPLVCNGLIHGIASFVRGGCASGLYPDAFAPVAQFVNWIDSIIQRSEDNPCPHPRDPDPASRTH

## CC(C)(C)OC(=O)N[C@H](Cc1ccccc1)C(=O)N1CCC[C@H]1C(=O)NC(c1ccc(C(=N)N)cc1)P(=O)(Oc1ccccc1)Oc1ccccc1.Cl (stereo partly drawn) [diphenyl Boc-D-Phe-Pro-amino(4-amidinophenyl)methanephosphonate hydrochloride]
Bovine thrombin
  inhibitor potency for bovine thrombin: potent phosphonate inhibitor

## CC(C)[C@H](NC(=O)CCC(=O)O)C(=O)N1CCC[C@H]1C(=O)NC(Cc1ccccc1)P(=O)(Oc1ccccc1)Oc1ccccc1 (stereo partly drawn) [Suc-Val-Pro-Phe^P(OPh)2-I]
Syrian hamsters
  preventative effect, reducing adhesion formation: not

## CC(C)[C@H](NC(=O)CCC(=O)O)C(=O)N1CCC[C@H]1C(=O)NC(Cc1ccccc1)P(=O)(Oc1ccccc1)Oc1ccccc1 (stereo partly drawn) [Suc-Val-Pro-Phe^P(OPh)2]
[1]
  half-life in human plasma: approximately 20 hr
Chymase [2]
  uterus chymase activity: 0.66±0.06 mU/mg protein
[3]
  inhibitor potency for chymotrypsin and chymotrypsin-like enzymes: relatively potent inhibitor
Chymase [4]
  chymase activity in vascular tissues: significantly suppressed
Syrian hamsters; two weeks after surgery, 1 ml of 10 μM in saline into the abdomen, score 0-4, mean ± S.E., placebo 2.07±0.34, difference significant
  scores of adhesion formation: 0.88±0.20
Syrian hamsters; two weeks after surgery, score 0-4, placebo scores between 0 and 4
  highest score of adhesion formation found: ≤ 3

## MeO-Suc-Ala-Ala-Pro-Val^P(OPh)2
Human leukocyte elastase
  inhibitor potency for human leukocyte elastase: relatively potent inhibitors

## Boc-Val-Pro-Val^P(OPh)2
Human leukocyte elastase
  inhibitor potency for human leukocyte elastase: relatively potent inhibitors

## CC(C)[C@H](NC(=O)CCC(=O)O)C(=O)N1CCC[C@H]1C(=O)NC(Cc1ccccc1)P(=O)(Oc1ccccc1)Oc1ccccc1 (stereo partly drawn) [Suc-Val-Pro-Phe^P(OPh)2-A]
Syrian hamsters
  preventative effect, reducing adhesion formation: significant preventative effect
